Assay results from ChEMBL document CHEMBL1155507, “Synthesis, SAR and evaluation of [1,4']-bipiperidinyl-4-yl-imidazolidin-2-one derivatives as novel CCR5 antagonists” (Bioorg Med Chem Lett, 2010).

Key:
[1] = molecular target: C-C chemokine receptor type 5 (Homo sapiens, UniProt P51681); test: Binding affinity at CCR5 receptor by radiolabeled RANTES binding assay
Caco-2 = test: Efflux ratio of permeability from basolateral to apical over apical to basolateral side in human Caco-2 cells after 21 days; format: ADME, cell-based; conditions: caco-2, 504 h
[2] = Intrinsic clearance in human liver microsomes per mg of protein; format: ADME, Microsome
[3] = Permeability from apical to basolateral side of human Caco-2 cells after 21 days; format: ADME, cell-based; conditions: read-out: permeability
[4] = system: Human immunodeficiency virus 1; test: Antiviral activity against HIV1 NL4-3 infected in human JC53-BL cells assessed as luciferase activity after 3 days post infection; format: functional, organism-based; conditions: Human immunodeficiency virus 1, NL4-3, JC53BL, 72 h
[5] = (§1) Oral bioavailability in rat at 1 mg/kg; format: ADME, organism-based; conditions: in vivo
[6] = Clearance in rat at 1 mg/kg, iv; format: ADME, organism-based; set-up: dose 1 mg/kg, route intravenous; conditions: in vivo
[7] = Cmax in rat at 1 mg/kg, po; format: ADME, organism-based; set-up: dose 1 mg/kg, route oral; conditions: in vivo
Liver microsomes = test: Intrinsic clearance in rat liver microsomes; format: ADME, Microsome
[8] = (§2) AUC in rat at 1 mg/kg, po; format: ADME, organism-based, Plasma; set-up: dose 1 mg/kg, route oral; conditions: plasma
[9] = Half life in rat at 1 mg/kg, iv; format: ADME, organism-based; set-up: dose 1 mg/kg, route intravenous; conditions: in vivo
[10] = Cmax in cynomolgus monkey at 1 mg/kg, po; format: ADME, organism-based, Macaca fascicularis; set-up: dose 1 mg/kg, route oral; conditions: in vivo
[11] = Clearance in cynomolgus monkey at 1 mg/kg, iv; format: ADME, organism-based, Macaca fascicularis; set-up: dose 1 mg/kg, route intravenous; conditions: in vivo
[12] = AUC in cynomolgus monkey at 1 mg/kg, po; format: ADME, organism-based, Macaca fascicularis; set-up: dose 1 mg/kg, route oral; conditions: plasma
[13] = Oral bioavailability in cynomolgus monkey at 1 mg/kg; format: ADME, organism-based, Macaca fascicularis; conditions: in vivo
[14] = Half life in cynomolgus monkey at 1 mg/kg, iv; format: ADME, organism-based, Macaca fascicularis; set-up: dose 1 mg/kg, route intravenous; conditions: in vivo
[15] = Intrinsic clearance in cynomolgus monkey liver microsomes; format: ADME, Macaca fascicularis, Microsome
Rattus norvegicus [16] = test: as §1; format: ADME, organism-based; conditions: in vivo
Rattus norvegicus [17] = test: as §2; format: ADME, organism-based, Plasma; set-up: dose 1 mg/kg, route oral; conditions: in vivo
hERG (KCNH2) = hERG (KCNH2) (Homo sapiens, UniProt Q12809); test: Inhibition of human ERG by patch clamp technique
hERG (KCNH2), sequence (Q12809 whole entry): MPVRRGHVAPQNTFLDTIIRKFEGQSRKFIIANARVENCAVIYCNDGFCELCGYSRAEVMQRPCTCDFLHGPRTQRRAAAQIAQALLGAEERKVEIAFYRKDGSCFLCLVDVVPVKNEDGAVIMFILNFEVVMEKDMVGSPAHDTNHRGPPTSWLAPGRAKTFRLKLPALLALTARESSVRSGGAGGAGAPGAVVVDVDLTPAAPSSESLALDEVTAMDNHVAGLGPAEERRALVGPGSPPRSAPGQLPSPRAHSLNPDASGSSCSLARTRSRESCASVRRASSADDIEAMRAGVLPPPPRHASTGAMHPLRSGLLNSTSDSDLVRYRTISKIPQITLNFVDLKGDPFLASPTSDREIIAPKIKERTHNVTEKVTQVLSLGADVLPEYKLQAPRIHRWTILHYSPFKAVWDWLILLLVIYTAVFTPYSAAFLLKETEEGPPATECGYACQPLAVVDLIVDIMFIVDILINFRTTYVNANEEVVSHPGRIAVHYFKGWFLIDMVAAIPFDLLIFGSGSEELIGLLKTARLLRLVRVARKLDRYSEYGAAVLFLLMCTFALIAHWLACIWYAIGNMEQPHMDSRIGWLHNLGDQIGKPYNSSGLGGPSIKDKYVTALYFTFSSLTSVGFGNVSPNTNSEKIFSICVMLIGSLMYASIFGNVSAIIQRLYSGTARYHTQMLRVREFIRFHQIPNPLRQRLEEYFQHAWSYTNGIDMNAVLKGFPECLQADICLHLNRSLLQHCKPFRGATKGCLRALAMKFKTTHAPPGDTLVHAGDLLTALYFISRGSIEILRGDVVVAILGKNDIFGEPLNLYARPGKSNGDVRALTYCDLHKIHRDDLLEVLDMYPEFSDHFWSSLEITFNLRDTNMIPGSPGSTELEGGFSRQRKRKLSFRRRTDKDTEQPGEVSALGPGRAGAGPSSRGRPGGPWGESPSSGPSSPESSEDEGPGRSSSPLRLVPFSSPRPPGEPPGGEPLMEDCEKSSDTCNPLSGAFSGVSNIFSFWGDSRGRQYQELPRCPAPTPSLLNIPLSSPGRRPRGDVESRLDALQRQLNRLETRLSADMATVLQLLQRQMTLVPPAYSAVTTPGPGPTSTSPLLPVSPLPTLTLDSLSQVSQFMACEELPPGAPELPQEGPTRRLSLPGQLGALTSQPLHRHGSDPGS

C-C chemokine receptor type 5, sequence (P51681 whole entry): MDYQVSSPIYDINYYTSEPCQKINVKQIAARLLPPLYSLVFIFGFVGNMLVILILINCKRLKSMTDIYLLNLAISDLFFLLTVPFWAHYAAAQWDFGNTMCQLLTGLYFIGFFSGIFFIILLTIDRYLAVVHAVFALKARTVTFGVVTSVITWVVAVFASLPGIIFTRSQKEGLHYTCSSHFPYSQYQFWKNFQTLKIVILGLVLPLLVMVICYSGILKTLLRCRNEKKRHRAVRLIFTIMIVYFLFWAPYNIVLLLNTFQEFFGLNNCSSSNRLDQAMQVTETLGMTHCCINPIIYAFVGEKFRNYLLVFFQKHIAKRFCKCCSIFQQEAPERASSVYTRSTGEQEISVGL

IC50 [1] [nM] | Ratio (Caco-2) | microsomal CLint [2] [µL/min/mg] | Papp A→B [3] [×10⁻⁶ cm/s] | IC50 [4] [nM] | Compound | further results
 | 28 | 8 | 0.6 | > 625 | Cc1ncnc(C)c1C(=O)N1CCC(C)(N2CCC(N3C(=O)N(C4CCOCC4)C[C@H]3c3ccccc3)CC2)CC1 | 
 | 56 | 155 | 0.3 | 26 | COC(=O)N1CCC(CN2C[C@@H](c3ccccc3)N(C3CCN(C4(C)CCN(C(=O)c5c(C)ncnc5C)CC4)CC3)C2=O)CC1 | 
34 | 38 | 224 | 0.2 | 7 | Cc1ncnc(C)c1C(=O)N1CCC(C)(N2CCC(N3C(=O)N(CC4CCN(S(C)(=O)=O)CC4)C[C@H]3c3ccccc3)CC2)CC1 | 
32 | 13 | 13 | 0.1 | 99 | CNC(=O)N1CCC(CN2C[C@@H](c3ccccc3)N(C3CCN(C4(C)CCN(C(=O)c5c(C)ncnc5C)CC4)CC3)C2=O)CC1 | 
62 | 13 | 69 | 1.4 | 8 | CO[C@H]1CC[C@H](CN2C[C@@H](c3ccccc3)N(C3CCN(C4(C)CCN(C(=O)c5c(C)ncnc5C)CC4)CC3)C2=O)CC1 | 
6 | 4 | 47 | 3 | 3 | CCO[C@H]1CC[C@H](CN2C[C@@H](c3ccccc3)N(C3CCN(C4(C)CCN(C(=O)c5c(C)ncnc5C)CC4)CC3)C2=O)CC1 | bioavailability [5]: 10%; clearance [6]: 65 mL/min/kg; Cmax [7]: 21 ng/mL; CL (Liver microsomes): 89 µL/min; AUC [8]: 49 ng·h/mL; half-life [9]: 0.8 h
20 | 61 | 12 | 0.2 | 8 | Cc1ncnc(C)c1C(=O)N1CCC(C)(N2CCC(N3C(=O)N(C[C@H]4CC[C@H](O)CC4)C[C@H]3c3ccccc3)CC2)CC1 | 
8 | 24 | 96 | 0.8 | 25 | Cc1ncnc(C)c1C(=O)N1CCC(C)(N2CCC(N3C(=O)N(CCC4CCOCC4)C[C@H]3c3ccccc3)CC2)CC1 | 
20 | 29 | 16 | 0.5 | 32 | Cc1ncnc(C)c1C(=O)N1CCC(C)(N2CCC(N3C(=O)N(CC4CCOCC4)C[C@H]3c3ccccc3)CC2)CC1 | Cmax [10]: 16 ng/mL; clearance [11]: 39 mL/min/kg; AUC [12]: 55 ng·h/mL; bioavailability [13]: 14%; half-life [14]: 1.9 h; microsomal CLint [15]: 65 µL/min/mg
> 500 |  |  |  | > 650 | Cc1ncnc(C)c1C(=O)N1CCC(C)(N2CCC(N3C(=O)N(CC4CCOCC4)C[C@@H]3c3ccccc3)CC2)CC1 | 
33 | 47 | 34 | 0.4 | 3 | Cc1cc(C#N)nc(C)c1C(=O)N1CCC(C)(N2CCC(N3C(=O)N(C[C@H]4CC[C@H](O)CC4)C[C@H]3c3ccccc3)CC2)CC1 | 
25 | 30 | 40 | 0.5 | 9 | CCO[C@H]1CC[C@H](CN2C[C@H](c3ccccn3)N(C3CCN(C4(C)CCN(C(=O)c5c(C)cc(C#N)nc5C)CC4)CC3)C2=O)CC1 | 
27 | 33 | 31 | 0.4 | 47 | Cc1ncnc(C)c1C(=O)N1CCC(C)(N2CCC(N3C(=O)N(CC4CCOCC4)CC3c3ccccc3)CC2)CC1 (racemic) | bioavailability [5]: 27%; clearance [6]: 44 mL/min/kg; IC20 (hERG (KCNH2)): 22000 nM; Cmax [7]: 56 ng/mL; CL (Liver microsomes): 14 µL/min; AUC [8]: 189 ng·h/mL; half-life [9]: 1.5 h

Continued, molecule first:

Compound | IC50 [1] [nM] | Ratio (Caco-2) | microsomal CLint [2] [µL/min/mg] | Papp A→B [3] [×10⁻⁶ cm/s] | IC50 [4] [nM] | further results
Cc1cc(C#N)nc(C)c1C(=O)N1CCC(C)(N2CCC(N3C(=O)N(C)C[C@H]3c3ccccc3)CC2)CC1 | 24 | 25 | 44 | 0.6 | 22 | 
CNC(=O)N1CCC(CN2C[C@@H](c3ccccc3)N(C3CCN(C4(C)CCN(C(=O)c5c(C)cc(C#N)nc5C)CC4)CC3)C2=O)CC1 | 26 | 10 | 53 | 0.7 | 25 | 
Cc1cc(C#N)nc(C)c1C(=O)N1CCC(C)(N2CCC(N3C(=O)N(CC4CCOCC4)C[C@H]3c3ccccc3)CC2)CC1 | 12 | 20 | 57 | 1 | 2 | 
Cc1cc(C#N)nc(C)c1C(=O)N1CCC(C)(N2CCC(N3C(=O)N(C4CCOCC4)C[C@H]3c3ccccc3)CC2)CC1 | 21 | 12 | 15 | 1 | 7 | F (Rattus norvegicus [16]): 23%; Cmax [7]: 43 ng/mL; CL (Liver microsomes): 55 µL/min; AUC (Rattus norvegicus [17]): 85 ng·h/mL; half-life [9]: 5.7 h
Cc1cc(C#N)nc(C)c1C(=O)N1CCC(C)(N2CCC(N3C(=O)N(CC4CCOCC4)C[C@@H]3c3ccccn3)CC2)CC1 | 12 | 77 | 18 | 0.1 | 22 | bioavailability [5]: 19%; clearance [6]: 29 mL/min/kg; Cmax [7]: 38 ng/mL; CL (Liver microsomes): 87 µL/min; AUC [8]: 187 ng·h/mL; half-life [9]: 1 h
CCCCC1CN(C2CCOCC2)C(=O)N1C1CCN(C2(C)CCN(C(=O)c3c(C)ncnc3C)CC2)CC1 (racemic) | 84 | 52 | 9 | 0.4 | > 625 | 
CCCCC1CN(CC2CCOCC2)C(=O)N1C1CCN(C2(C)CCN(C(=O)c3c(C)ncnc3C)CC2)CC1 (racemic) | 43 | 40 | 36 | 0.4 | 335 | 
Cc1cc(C#N)nc(C)c1C(=O)N1CCC(C)(N2CCC(N3C(=O)N(C4CCOCC4)CC3c3ccccc3)CC2)CC1 (racemic) |  |  |  |  |  | Cmax [10]: 133 ng/mL; IC20 (hERG (KCNH2)): 3500 nM; clearance [11]: 17 mL/min/kg; AUC [12]: 418 ng·h/mL; bioavailability [13]: 42%; half-life [14]: 1.9 h; microsomal CLint [15]: 33 µL/min/mg
CCCCC1CN(C2CCOCC2)C(=O)N1C1CCN(C2(C)CCN(C(=O)c3c(C)cc(C#N)nc3C)CC2)CC1 (racemic) | 65 | 14 | 20 | 1 | 41 | 
